From patent publication US20080311657A1, “Killing Human Lymphoma and Leukemia Cancer Cells and Tcr-Activated Normal Human Cells By Dopamine D1r Agonists” (priority 2005, published 2008)
Values joined by “and” are separate entries in the source; they are usually repeats but may differ in a detail not shown here. Equal entries are not always repeated.

Tests used:
muscarinic receptors = conditions: cited from earlier work
α2-adrenoceptors = conditions: cited from earlier work
D2-like receptors = conditions: cited from earlier work
5HT1 receptors = conditions: cited from earlier work
β adrenoceptors = conditions: cited from earlier work
5HT2 receptors = conditions: cited from earlier work
[1] = system: Human Burkitt's B-Cell Lymphoma (Daudi); experiment: Cell death by LDH release (CytoTox 96); assay type: cell-based; conditions: 1 hour
Procedure: (§1) Cell viability was tested afterwards.

α1 adrenoceptors = conditions: cited from earlier work
[2] = system: Human Chronic Myeloid Leukemia (CML, K-562); experiment: Cell death by LDH release (CytoTox 96); assay type: cell-based
Procedure: as §1
(§2) Tables 3 and 4 show results of experiments designed primarily for studying the kinetics of the effect (herein fenoldopam hydrobromide was tested only at a concentration range of 10^−4 M-10^−6 M), and indicate that already after 1 minute of fenoldopam hydrobromide addition, there is an increased LDH. Yet, the extent of death increased gradually with time (10, 30 and 60 minutes), and after 1 hour the cancer cells released dramatic levels of LDH, indicating massive cell death.

[3] = system: Human T-Cell Lymphoma (HuT-78); experiment: Cell death by LDH release (CytoTox 96); assay type: cell-based
Procedure: as §1, §2

Structure (SMILES): Oc1ccc(C2CNCCc3c2cc(O)c(O)c3Cl)cc1 (stereo not shown) [Fenoldopam]
- Affinity, in words (muscarinic receptors): no significant affinity
- Affinity, in words (α2-adrenoceptors): moderate affinity
- Affinity, in words (D2-like receptors): no significant affinity
- Affinity, in words (5HT1 receptors): no significant affinity
- Affinity, in words (β adrenoceptors): no significant affinity
- Affinity, in words (5HT2 receptors): no significant affinity
- LDH Release (OD), Average ([1]; Fenoldopam 10^−4M): 0.9595 OD
- LDH Release (OD), OD Duplicates ([1]; Fenoldopam 10^−4M): 0.961 OD and 0.958 OD
- LDH Release (OD), Average ([1]; Fenoldopam 10^−5M): 1.0025 OD
- LDH Release (OD), OD Duplicates ([1]; Fenoldopam 10^−5M): 0.99 OD and 1.015 OD
- LDH Release (OD), Average ([1]; Fenoldopam 10^−6M): 0.526 OD
- LDH Release (OD), OD Duplicates ([1]; Fenoldopam 10^−6M): 0.525 OD and 0.527 OD
- LDH Release (OD), Average ([1]; Fenoldopam 10^−7M): 0.5365 OD
- LDH Release (OD), OD Duplicates ([1]; Fenoldopam 10^−7M): 0.55 OD and 0.523 OD
- LDH Release (OD), Average ([1]; Fenoldopam 10^−8M): 1.339 OD
- LDH Release (OD), OD Duplicates ([1]; Fenoldopam 10^−8M): 1.316 OD and 1.362 OD
- LDH Release (OD), Average ([1]; Fenoldopam 10^−9M): 0.899 OD
- LDH Release (OD), OD Duplicates ([1]; Fenoldopam 10^−9M): 0.903 OD and 0.895 OD
- Concentration of maximal killing ([1]; LDH release, Table 2): 10^−8 M
- Affinity, in words (α1 adrenoceptors): no significant affinity
- Release of LDH (OD), Average OD ([2]; Fenoldopam 10^−4M 1 Min): 1.081 OD
- Release of LDH (OD), OD Duplicates ([2]; Fenoldopam 10^−4M 1 Min): 1.081 OD
- Release of LDH (OD), Average OD ([2]; Fenoldopam 10^−4M 10 Min): 0.863 OD
- Release of LDH (OD), OD Duplicates ([2]; Fenoldopam 10^−4M 10 Min): 0.868 OD and 0.858 OD
- Release of LDH (OD), Average OD ([2]; Fenoldopam 10^−4M 30 Min): 2.7755 OD
- Release of LDH (OD), OD Duplicates ([2]; Fenoldopam 10^−4M 30 Min): 2.737 OD and 2.814 OD
- Release of LDH (OD), Average OD ([2]; Fenoldopam 10^−4M 60 Min): 2.27 OD
- Release of LDH (OD), OD Duplicates ([2]; Fenoldopam 10^−4M 60 Min): 2.733 OD and 1.807 OD
- Release of LDH (OD), Average OD ([2]; Fenoldopam 10^−5M 60 Min): 2.9645 OD
- Release of LDH (OD), OD Duplicates ([2]; Fenoldopam 10^−5M 60 Min): 2.907 OD and 3.022 OD
- Release of LDH (OD), Average OD ([2]; Fenoldopam 10^−6M 60 Min): 0.7625 OD
- Release of LDH (OD), OD Duplicates ([2]; Fenoldopam 10^−6M 60 Min): 0.759 OD and 0.766 OD
- Release of LDH (OD), Average OD ([3]; Fenoldopam 10^−4M 1 Min): 0.8135 OD
- Release of LDH (OD), OD Duplicates ([3]; Fenoldopam 10^−4M 1 Min): 0.786 OD and 0.841 OD
- Release of LDH (OD), Average OD ([3]; Fenoldopam 10^−4M 10 Min): 1.4355 OD
- Release of LDH (OD), Average OD ([3]; Fenoldopam 10^−4M 30 Min): 3.087 OD
- Release of LDH (OD), OD Duplicates ([3]; Fenoldopam 10^−4M 30 Min): 3.015 OD and 3.159 OD
- Release of LDH (OD), Average OD ([3]; Fenoldopam 10^−4M 60 Min): 2.8775 OD
- Release of LDH (OD), OD Duplicates ([3]; Fenoldopam 10^−4M 60 Min): 2.688 OD and 3.067 OD
- Release of LDH (OD), Average OD ([3]; Fenoldopam 10^−5M 60 Min): 2.9465 OD
- Release of LDH (OD), OD Duplicates ([3]; Fenoldopam 10^−5M 60 Min): 2.907 OD and 3.022 OD
- Release of LDH (OD), Average OD ([3]; Fenoldopam 10^−6M 60 Min): 0.7625 OD
- Release of LDH (OD), OD Duplicates ([3]; Fenoldopam 10^−6M 60 Min): 0.759 OD and 0.766 OD
